# The source made the active and inactive calls. No cut-off for these calls is given here.
# Test system: MCF7
# Test: Cytotoxicity against human MCF7 cells assessed as reduction in cell viability at 10 uM by MTT assay
# Format: functional, cell-based
row,Compound,Activity
1,COc1ccc([C@H]2COc3c(ccc(O)c3CC=C(C)C)C2)c(O)c1,inactive
2,COc1ccc(C[C@H]2Oc3cc(O)ccc3/C2=C/C(=O)O)cc1,inactive
3,CC(C)=CCc1cc2c(cc1O)OC[C@H](c1ccc(O)cc1O)[C@@H]2c1cc([C@H]2COc3c(ccc(O)c3CC=C(C)C)C2)c(O)cc1O,inactive
4,CC(C)=CCc1cc([C@H]2Oc3cc(O)ccc3C(=O)[C@@H]2O)ccc1O,inactive
5,CC(C)=CCc1c(O)ccc([C@@H]2COc3c(ccc(O)c3CC=C(C)C)C2)c1O,inactive
6,CC(C)=CCc1c(O)ccc2c1OC[C@@H](c1ccc(O)cc1O)C2=O,inactive
7,CC1(C)CCc2c(ccc3c2OC[C@@H](c2ccc(O)cc2O)C3)O1,inactive
8,COc1ccc([C@@H]2COc3c(ccc(O)c3CC=C(C)C)C2=O)c(O)c1,inactive
9,COc1ccc(C2COc3cc4c(cc3C2)C=CC(C)(C)O4)c(O)c1 (configuration not stated),inactive
10,COc1cc(O)ccc1[C@H]1COc2cc(O)ccc2[C@H]1c1cc2c(c(CC=C(C)C)c1O)OC[C@@H](c1ccc(O)cc1O)C2,inactive
11,CC(C)=CCc1cc2c(cc1O)OC[C@H](c1ccc(O)cc1O)[C@@H]2c1cc2c(c(CC=C(C)C)c1O)OC[C@@H](c1ccc(O)cc1O)C2,inactive
12,COc1ccc(-c2coc3cc(O)ccc3c2=O)cc1,inactive
13,CC(C)=CCc1c(O)ccc2c1OC[C@H](c1ccc(O)cc1O)C2,inactive
14,CC(C)=CCc1cc([C@H]2Oc3cc(O)cc(O)c3C(=O)[C@@H]2O)ccc1O,inactive
15,CC(C)=CCc1c(O)ccc([C@@H]2COc3c(ccc(O)c3CC=C(C)C)C2=O)c1O,inactive
16,CC(C)=CCc1c(O)cc(O)cc1/C=C/c1ccc(O)cc1,inactive
17,COc1ccc([C@@H]2COc3cc(O)ccc3C2)c(O)c1,inactive
18,CC(C)(O)CCc1c(O)ccc2c1OC[C@H](c1ccc(O)cc1O)C2,inactive
19,CC(C)=CCc1c(O)ccc2c1OC[C@H](c1cc([C@@H]3c4ccc(O)c(CC=C(C)C)c4OC[C@@H]3c3ccc(O)cc3O)c(O)cc1O)C2,inactive
20,CC1(C)CCc2c(ccc3c2OC[C@@H](c2ccc(O)cc2O)C3=O)O1,inactive
21,CC(C)=CCc1cc([C@@H]2CC(=O)c3ccc(O)cc3O2)ccc1O,inactive
22,COc1ccc(-c2coc3c(CC=C(C)C)c(O)ccc3c2=O)cc1,inactive
23,O=C(O)/C=C1/c2ccc(O)cc2O[C@@H]1Cc1ccc(O)cc1,inactive

# Test system: HeLa
# Test: Cytotoxicity against human HeLa cells assessed as reduction in cell viability at 10 uM by MTT assay
# Format: functional, cell-based
row,Compound,Activity
1,COc1ccc([C@H]2COc3c(ccc(O)c3CC=C(C)C)C2)c(O)c1,inactive
2,COc1ccc(C[C@H]2Oc3cc(O)ccc3/C2=C/C(=O)O)cc1,inactive
3,CC(C)=CCc1cc2c(cc1O)OC[C@H](c1ccc(O)cc1O)[C@@H]2c1cc([C@H]2COc3c(ccc(O)c3CC=C(C)C)C2)c(O)cc1O,inactive
4,CC(C)=CCc1cc([C@H]2Oc3cc(O)ccc3C(=O)[C@@H]2O)ccc1O,inactive
5,CC(C)=CCc1c(O)ccc([C@@H]2COc3c(ccc(O)c3CC=C(C)C)C2)c1O,inactive
6,CC(C)=CCc1c(O)ccc2c1OC[C@@H](c1ccc(O)cc1O)C2=O,inactive
7,CC1(C)CCc2c(ccc3c2OC[C@@H](c2ccc(O)cc2O)C3)O1,inactive
8,COc1ccc([C@@H]2COc3c(ccc(O)c3CC=C(C)C)C2=O)c(O)c1,inactive
9,COc1ccc(C2COc3cc4c(cc3C2)C=CC(C)(C)O4)c(O)c1 (configuration not stated),inactive
10,COc1cc(O)ccc1[C@H]1COc2cc(O)ccc2[C@H]1c1cc2c(c(CC=C(C)C)c1O)OC[C@@H](c1ccc(O)cc1O)C2,inactive
11,CC(C)=CCc1cc2c(cc1O)OC[C@H](c1ccc(O)cc1O)[C@@H]2c1cc2c(c(CC=C(C)C)c1O)OC[C@@H](c1ccc(O)cc1O)C2,inactive
12,COc1ccc(-c2coc3cc(O)ccc3c2=O)cc1,inactive
13,CC(C)=CCc1c(O)ccc2c1OC[C@H](c1ccc(O)cc1O)C2,inactive
14,CC(C)=CCc1cc([C@H]2Oc3cc(O)cc(O)c3C(=O)[C@@H]2O)ccc1O,inactive
15,CC(C)=CCc1c(O)ccc([C@@H]2COc3c(ccc(O)c3CC=C(C)C)C2=O)c1O,inactive
16,CC(C)=CCc1c(O)cc(O)cc1/C=C/c1ccc(O)cc1,inactive
17,COc1ccc([C@@H]2COc3cc(O)ccc3C2)c(O)c1,inactive
18,CC(C)(O)CCc1c(O)ccc2c1OC[C@H](c1ccc(O)cc1O)C2,inactive
19,CC(C)=CCc1c(O)ccc2c1OC[C@H](c1cc([C@@H]3c4ccc(O)c(CC=C(C)C)c4OC[C@@H]3c3ccc(O)cc3O)c(O)cc1O)C2,inactive
20,CC1(C)CCc2c(ccc3c2OC[C@@H](c2ccc(O)cc2O)C3=O)O1,inactive
21,CC(C)=CCc1cc([C@@H]2CC(=O)c3ccc(O)cc3O2)ccc1O,inactive
22,COc1ccc(-c2coc3c(CC=C(C)C)c(O)ccc3c2=O)cc1,inactive
23,O=C(O)/C=C1/c2ccc(O)cc2O[C@@H]1Cc1ccc(O)cc1,inactive

# Test system: HepG2
# Test: Cytotoxicity against human HepG2 cells assessed as reduction in cell viability at 10 uM by MTT assay
# Format: functional, cell-based
row,Compound,Activity
1,COc1ccc([C@H]2COc3c(ccc(O)c3CC=C(C)C)C2)c(O)c1,inactive
2,COc1ccc(C[C@H]2Oc3cc(O)ccc3/C2=C/C(=O)O)cc1,inactive
3,CC(C)=CCc1cc2c(cc1O)OC[C@H](c1ccc(O)cc1O)[C@@H]2c1cc([C@H]2COc3c(ccc(O)c3CC=C(C)C)C2)c(O)cc1O,inactive
4,CC(C)=CCc1cc([C@H]2Oc3cc(O)ccc3C(=O)[C@@H]2O)ccc1O,inactive
5,CC(C)=CCc1c(O)ccc([C@@H]2COc3c(ccc(O)c3CC=C(C)C)C2)c1O,inactive
6,CC(C)=CCc1c(O)ccc2c1OC[C@@H](c1ccc(O)cc1O)C2=O,inactive
7,CC1(C)CCc2c(ccc3c2OC[C@@H](c2ccc(O)cc2O)C3)O1,inactive
8,COc1ccc([C@@H]2COc3c(ccc(O)c3CC=C(C)C)C2=O)c(O)c1,inactive
9,COc1ccc(C2COc3cc4c(cc3C2)C=CC(C)(C)O4)c(O)c1 (configuration not stated),inactive
10,COc1cc(O)ccc1[C@H]1COc2cc(O)ccc2[C@H]1c1cc2c(c(CC=C(C)C)c1O)OC[C@@H](c1ccc(O)cc1O)C2,inactive
11,CC(C)=CCc1cc2c(cc1O)OC[C@H](c1ccc(O)cc1O)[C@@H]2c1cc2c(c(CC=C(C)C)c1O)OC[C@@H](c1ccc(O)cc1O)C2,inactive
12,COc1ccc(-c2coc3cc(O)ccc3c2=O)cc1,inactive
13,CC(C)=CCc1c(O)ccc2c1OC[C@H](c1ccc(O)cc1O)C2,inactive
14,CC(C)=CCc1cc([C@H]2Oc3cc(O)cc(O)c3C(=O)[C@@H]2O)ccc1O,inactive
15,CC(C)=CCc1c(O)ccc([C@@H]2COc3c(ccc(O)c3CC=C(C)C)C2=O)c1O,inactive
16,CC(C)=CCc1c(O)cc(O)cc1/C=C/c1ccc(O)cc1,inactive
17,COc1ccc([C@@H]2COc3cc(O)ccc3C2)c(O)c1,inactive
18,CC(C)(O)CCc1c(O)ccc2c1OC[C@H](c1ccc(O)cc1O)C2,inactive
19,CC(C)=CCc1c(O)ccc2c1OC[C@H](c1cc([C@@H]3c4ccc(O)c(CC=C(C)C)c4OC[C@@H]3c3ccc(O)cc3O)c(O)cc1O)C2,inactive
20,CC1(C)CCc2c(ccc3c2OC[C@@H](c2ccc(O)cc2O)C3=O)O1,inactive
21,CC(C)=CCc1cc([C@@H]2CC(=O)c3ccc(O)cc3O2)ccc1O,inactive
22,COc1ccc(-c2coc3c(CC=C(C)C)c(O)ccc3c2=O)cc1,inactive
23,O=C(O)/C=C1/c2ccc(O)cc2O[C@@H]1Cc1ccc(O)cc1,inactive

# Test system: A549
# Test: Cytotoxicity against human A549 cells assessed as reduction in cell viability at 10 uM by MTT assay
# Format: functional, cell-based
row,Compound,Activity
1,COc1ccc([C@H]2COc3c(ccc(O)c3CC=C(C)C)C2)c(O)c1,inactive
2,COc1ccc(C[C@H]2Oc3cc(O)ccc3/C2=C/C(=O)O)cc1,inactive
3,CC(C)=CCc1cc2c(cc1O)OC[C@H](c1ccc(O)cc1O)[C@@H]2c1cc([C@H]2COc3c(ccc(O)c3CC=C(C)C)C2)c(O)cc1O,inactive
4,CC(C)=CCc1cc([C@H]2Oc3cc(O)ccc3C(=O)[C@@H]2O)ccc1O,inactive
5,CC(C)=CCc1c(O)ccc([C@@H]2COc3c(ccc(O)c3CC=C(C)C)C2)c1O,inactive
6,CC(C)=CCc1c(O)ccc2c1OC[C@@H](c1ccc(O)cc1O)C2=O,inactive
7,CC1(C)CCc2c(ccc3c2OC[C@@H](c2ccc(O)cc2O)C3)O1,inactive
8,COc1ccc([C@@H]2COc3c(ccc(O)c3CC=C(C)C)C2=O)c(O)c1,inactive
9,COc1ccc(C2COc3cc4c(cc3C2)C=CC(C)(C)O4)c(O)c1 (configuration not stated),inactive
10,COc1cc(O)ccc1[C@H]1COc2cc(O)ccc2[C@H]1c1cc2c(c(CC=C(C)C)c1O)OC[C@@H](c1ccc(O)cc1O)C2,inactive
11,CC(C)=CCc1cc2c(cc1O)OC[C@H](c1ccc(O)cc1O)[C@@H]2c1cc2c(c(CC=C(C)C)c1O)OC[C@@H](c1ccc(O)cc1O)C2,inactive
12,COc1ccc(-c2coc3cc(O)ccc3c2=O)cc1,inactive
13,CC(C)=CCc1c(O)ccc2c1OC[C@H](c1ccc(O)cc1O)C2,inactive
14,CC(C)=CCc1cc([C@H]2Oc3cc(O)cc(O)c3C(=O)[C@@H]2O)ccc1O,inactive
15,CC(C)=CCc1c(O)ccc([C@@H]2COc3c(ccc(O)c3CC=C(C)C)C2=O)c1O,inactive
16,CC(C)=CCc1c(O)cc(O)cc1/C=C/c1ccc(O)cc1,inactive
17,COc1ccc([C@@H]2COc3cc(O)ccc3C2)c(O)c1,inactive
18,CC(C)(O)CCc1c(O)ccc2c1OC[C@H](c1ccc(O)cc1O)C2,inactive
19,CC(C)=CCc1c(O)ccc2c1OC[C@H](c1cc([C@@H]3c4ccc(O)c(CC=C(C)C)c4OC[C@@H]3c3ccc(O)cc3O)c(O)cc1O)C2,inactive
20,CC1(C)CCc2c(ccc3c2OC[C@@H](c2ccc(O)cc2O)C3=O)O1,inactive
21,CC(C)=CCc1cc([C@@H]2CC(=O)c3ccc(O)cc3O2)ccc1O,inactive
22,COc1ccc(-c2coc3c(CC=C(C)C)c(O)ccc3c2=O)cc1,inactive
23,O=C(O)/C=C1/c2ccc(O)cc2O[C@@H]1Cc1ccc(O)cc1,inactive

# From ChEMBL document CHEMBL6153095, “Dihydroaurones and Isoflavan Derivatives from the Roots of Glycyrrhiza asymmetrica” (J Nat Prod, 2025)
